Laboratory results reported in ChEMBL document CHEMBL1649156, “Antianaerobic activity of sulopenem compared to six other agents” (2009).

Tests used:
Type in all cases: functional
[1] = tested on: Parvimonas micra; assay: Antimicrobial activity in Micromonas micros by CLSI agar dilution method in presence of Sulbactam
[2] = tested on: Prevotella salivae; assay: Antimicrobial activity in Prevotella salivae by CLSI agar dilution method in presence of Sulbactam; conditions: Segatella salivae
[3] = tested on: Finegoldia magna; assay: Antimicrobial activity in Finegoldia magna by CLSI agar dilution method in presence of Sulbactam
[4] = tested on: Fusobacterium varium; assay: Antimicrobial activity in Fusobacterium varium by CLSI agar dilution method in presence of Sulbactam
[5] = tested on: Prevotella sp.; assay: Antimicrobial activity in Prevotella sp.by CLSI agar dilution method in presence of Sulbactam
[6] = tested on: Clostridium sp.; assay: Antimicrobial activity in Clostridium sp. by CLSI agar dilution method in presence of Sulbactam
[7] = tested on: Clostridium perfringens; assay: Antimicrobial activity in Clostridium perfringens by CLSI agar dilution method in presence of Sulbactam
[8] = tested on: Bifidobacterium; assay: Antimicrobial activity in Bifidobacterium by CLSI agar dilution method in presence of Sulbactam
[9] = tested on: Eggerthella lenta; assay: Antimicrobial activity in Eggerthella lenta by CLSI agar dilution method in presence of Sulbactam
[10] = tested on: Parabacteroides distasonis; assay: Antimicrobial activity in Bacteroides distasonis by CLSI agar dilution method in presence of Sulbactam
[11] = tested on: Paraclostridium bifermentans; assay: Antimicrobial activity in Clostridium bifermentans by CLSI agar dilution method in presence of Sulbactam
[12] = tested on: Anaerococcus tetradius; assay: Antimicrobial activity in Anaerococcus tetradius by CLSI agar dilution method in presence of Sulbactam
[13] = tested on: Bacteroides fragilis; assay: Antimicrobial activity in Bacteroides fragilis by CLSI agar dilution method in presence of Sulbactam
[14] = tested on: Prevotella disiens; assay: Antimicrobial activity in Prevotella disiens by CLSI agar dilution method in presence of Sulbactam
[15] = tested on: Prevotella corporis; assay: Antimicrobial activity in Prevotella corporis by CLSI agar dilution method in presence of Sulbactam
[16] = tested on: Porphyromonas gingivalis; assay: Antimicrobial activity in Porphyromonas gingivalis by CLSI agar dilution method in presence of Sulbactam
[17] = tested on: Prevotella denticola; assay: Antimicrobial activity in Prevotella denticola by CLSI agar dilution method in presence of Sulbactam
[18] = tested on: Peptostreptococcus anaerobius; assay: Antimicrobial activity in Peptostreptococcus anaerobius by CLSI agar dilution method in presence of Sulbactam
[19] = tested on: Bacteroides stercoris; assay: Antimicrobial activity in Bacteroides stercoris by CLSI agar dilution method in presence of Sulbactam
[20] = tested on: Hoylesella loescheii; assay: Antimicrobial activity in Prevotella loescheii by CLSI agar dilution method in presence of Sulbactam
[21] = tested on: Tissierella praeacuta; assay: Antimicrobial activity in Clostridium hastiforme by CLSI agar dilution method in presence of Sulbactam
[22] = tested on: Prevotella bergensis; assay: Antimicrobial activity in Prevotella bergensis by CLSI agar dilution method in presence of Sulbactam; conditions: Hallella bergensis
[23] = tested on: Anaerococcus prevotii; assay: Antimicrobial activity in Anaerococcus prevotii by CLSI agar dilution method in presence of Sulbactam
[24] = tested on: Cutibacterium acnes; assay: Antimicrobial activity in Propionibacterium acnes by CLSI agar dilution method in presence of Sulbactam
[25] = tested on: Phocaeicola vulgatus; assay: Antimicrobial activity in Bacteroides vulgatus by CLSI agar dilution method in presence of Sulbactam
[26] = tested on: Bacteroides ovatus; assay: Antimicrobial activity in Bacteroides ovatus by CLSI agar dilution method in presence of Sulbactam
[27] = tested on: [Clostridium] innocuum; assay: Antimicrobial activity in Clostridium innocuum by CLSI agar dilution method in presence of Sulbactam
[28] = tested on: Clostridium tertium; assay: Antimicrobial activity in Clostridium tertium by CLSI agar dilution method in presence of Sulbactam
[29] = tested on: Fusobacterium mortiferum; assay: Antimicrobial activity in Fusobacterium mortiferum by CLSI agar dilution method in presence of Sulbactam
[30] = tested on: Clostridioides difficile; assay: Antimicrobial activity in Clostridium difficile by CLSI agar dilution method in presence of Sulbactam
[31] = tested on: Clostridium cadaveris; assay: Antimicrobial activity in Clostridium cadaveris by CLSI agar dilution method in presence of Sulbactam
[32] = tested on: Bacteroides uniformis; assay: Antimicrobial activity in Bacteroides uniformis by CLSI agar dilution method in presence of Sulbactam
[33] = tested on: Bacteroides thetaiotaomicron; assay: Antimicrobial activity in Bacteroides thetaiotaomicron by CLSI agar dilution method in presence of Sulbactam
[34] = tested on: Prevotella buccae; assay: Antimicrobial activity in Prevotella buccae by CLSI agar dilution method in presence of Sulbactam; conditions: Segatella buccae
[35] = tested on: Peptoniphilus asaccharolyticus; assay: Antimicrobial activity in Peptoniphilus asaccharolyticus by CLSI agar dilution method in presence of Sulbactam
[36] = tested on: Actinomyces; assay: Antimicrobial activity in Actinomyces by CLSI agar dilution method in presence of Sulbactam
[37] = tested on: Prevotella bivia; assay: Antimicrobial activity in Prevotella bivia by CLSI agar dilution method in presence of Sulbactam
[38] = tested on: Prevotella nigrescens; assay: Antimicrobial activity in Prevotella nigrescens by CLSI agar dilution method in presence of Sulbactam
[39] = tested on: Paeniclostridium sordellii; assay: Antimicrobial activity in Clostridium sordellii by CLSI agar dilution method in presence of Sulbactam; conditions: Paraclostridium sordellii
[40] = tested on: Fusobacterium necrophorum; assay: Antimicrobial activity in Fusobacterium necrophorum by CLSI agar dilution method in presence of Sulbactam
[41] = tested on: Hoylesella oralis; assay: Antimicrobial activity in Prevotella oralis group by CLSI agar dilution method in presence of Sulbactam
[42] = tested on: Porphyromonas asaccharolytica; assay: Antimicrobial activity in Porphyromonas asaccharolytica by CLSI agar dilution method in presence of Sulbactam
[43] = tested on: Thomasclavelia ramosa; assay: Antimicrobial activity in Clostridium ramosum by CLSI agar dilution method in presence of Sulbactam
[44] = tested on: Enterocloster clostridioformis; assay: Antimicrobial activity in Clostridium clostridioforme by CLSI agar dilution method in presence of Sulbactam
[45] = tested on: Clostridium butyricum; assay: Antimicrobial activity in Clostridium butyricum by CLSI agar dilution method in presence of Sulbactam
[46] = tested on: Prevotella intermedia; assay: Antimicrobial activity in Prevotella intermedia by CLSI agar dilution method in presence of Sulbactam
[47] = tested on: Prevotella veroralis; assay: Antimicrobial activity in Prevotella veroralis by CLSI agar dilution method in presence of Sulbactam
[48] = tested on: Fusobacterium nucleatum; assay: Antimicrobial activity in Fusobacterium nucleatum by CLSI agar dilution method in presence of Sulbactam
[49] = tested on: Prevotella melaninogenica; assay: Antimicrobial activity in Prevotella melaninogenica by CLSI agar dilution method in presence of Sulbactam
[50] = tested on: Lactobacillus; assay: Antimicrobial activity in Lactobacillus by CLSI agar dilution method in presence of Sulbactam
[51] = tested on: Prevotella baroniae; assay: Antimicrobial activity in Prevotella baroniae by CLSI agar dilution method in presence of Sulbactam; conditions: Segatella baroniae

Compound: CC1(C)S[C@@H]2[C@H](NC(=O)[C@H](N)c3ccccc3)C(=O)N2[C@H]1C(=O)O [AMPICILLIN]
- MIC [1]: ≤ 0.125 µg/mL
- MIC50 [1]: ≤ 0.125 µg/mL
- MIC90 [1]: 1 µg/mL
- MIC [2]: ≤ 0.125 µg/mL
- MIC50 [3]: 0.25 µg/mL
- MIC90 [3]: 0.5 µg/mL
- MIC50 [4]: 2 µg/mL
- MIC90 [4]: 2 µg/mL
- MIC [5]: ≤ 0.125 µg/mL
- MIC50 [6]: 0.25 µg/mL
- MIC90 [6]: 0.5 µg/mL
- MIC [7]: ≤ 0.125 µg/mL
- MIC50 [7]: ≤ 0.125 µg/mL
- MIC90 [7]: 0.25 µg/mL
- MIC [8]: ≤ 0.125 µg/mL
- MIC50 [8]: ≤ 0.125 µg/mL
- MIC90 [8]: 0.25 µg/mL
- MIC50 [9]: 1 µg/mL
- MIC90 [9]: 2 µg/mL
- MIC50 [10]: 8 µg/mL
- MIC90 [10]: 32 µg/mL
- MIC [11]: 0.5 µg/mL
- MIC [12]: ≤ 0.125 µg/mL
- MIC50 [12]: ≤ 0.125 µg/mL
- MIC90 [12]: ≤ 0.125 µg/mL
- MIC50 [13]: 1 µg/mL
- MIC90 [13]: 8 µg/mL
- MIC [14]: ≤ 0.125 µg/mL
- MIC50 [14]: 0.25 µg/mL
- MIC [15]: ≤ 0.125 µg/mL
- MIC50 [15]: ≤ 0.125 µg/mL
- MIC [16]: ≤ 0.125 µg/mL
- MIC50 [17]: 0.5 µg/mL
- MIC90 [17]: 2 µg/mL
- MIC50 [18]: 0.25 µg/mL
- MIC90 [18]: 16 µg/mL
- MIC [19]: 1 µg/mL
- MIC50 [19]: 2 µg/mL
- MIC [20]: 0.5 µg/mL
- MIC [21]: 1 µg/mL
- MIC [22]: 1 µg/mL
- MIC [23]: ≤ 0.125 µg/mL
- MIC [24]: ≤ 0.125 µg/mL
- MIC50 [24]: ≤ 0.125 µg/mL
- MIC90 [24]: 0.25 µg/mL
- MIC50 [25]: 2 µg/mL
- MIC90 [25]: 16 µg/mL
- MIC [26]: 1 µg/mL
- MIC50 [26]: 1 µg/mL
- MIC90 [26]: 4 µg/mL
- MIC [27]: ≤ 0.125 µg/mL
- MIC [28]: 0.25 µg/mL
- MIC50 [28]: 0.25 µg/mL
- MIC50 [29]: 1 µg/mL
- MIC90 [29]: > 32 µg/mL
- MIC50 [30]: 2 µg/mL
- MIC90 [30]: 2 µg/mL
- MIC [31]: ≤ 0.125 µg/mL
- MIC [32]: 1 µg/mL
- MIC50 [32]: 1 µg/mL
- MIC50 [33]: 2 µg/mL
- MIC90 [33]: 8 µg/mL
- MIC50 [34]: 0.25 µg/mL
- MIC90 [34]: 2 µg/mL
- MIC [35]: ≤ 0.125 µg/mL
- MIC50 [35]: ≤ 0.125 µg/mL
- MIC [36]: ≤ 0.125 µg/mL
- MIC50 [36]: 0.25 µg/mL
- MIC50 [37]: 1 µg/mL
- MIC90 [37]: 4 µg/mL
- MIC50 [38]: 0.25 µg/mL
- MIC90 [38]: 0.5 µg/mL
- MIC [39]: ≤ 0.125 µg/mL
- MIC [40]: ≤ 0.125 µg/mL
- MIC50 [40]: ≤ 0.125 µg/mL
- MIC [41]: ≤ 0.125 µg/mL
- MIC [42]: ≤ 0.125 µg/mL
- MIC [43]: ≤ 0.125 µg/mL
- MIC [44]: 1 µg/mL
- MIC [45]: 1 µg/mL
- MIC50 [46]: 0.25 µg/mL
- MIC90 [46]: 0.5 µg/mL
- MIC [47]: ≤ 0.125 µg/mL
- MIC [48]: ≤ 0.125 µg/mL
- MIC50 [48]: ≤ 0.125 µg/mL
- MIC90 [48]: ≤ 0.125 µg/mL
- MIC50 [49]: 0.5 µg/mL
- MIC90 [49]: 2 µg/mL
- MIC50 [50]: 1 µg/mL
- MIC90 [50]: 1 µg/mL
- MIC [51]: ≤ 0.125 µg/mL
